# In US6620844B2, “Method for reducing blood insulin levels by reducing in vivo cathepsin L activity” (NewMillennium Pharmaceutical, Inc., priority 2001, dated 2003):
# Experiments:
# Cathepsin B = Cathepsin B (Homo sapiens, UniProt P07858); details: cited from earlier work
# Cathepsin L [1] = target: Cathepsin L (Homo sapiens, UniProt P07711); details: cited from earlier work
# Cathepsin K = target: T1, Cathepsin K (Homo sapiens, UniProt P43235); details: cited from earlier work
# T1 sequence (P43235 115-329): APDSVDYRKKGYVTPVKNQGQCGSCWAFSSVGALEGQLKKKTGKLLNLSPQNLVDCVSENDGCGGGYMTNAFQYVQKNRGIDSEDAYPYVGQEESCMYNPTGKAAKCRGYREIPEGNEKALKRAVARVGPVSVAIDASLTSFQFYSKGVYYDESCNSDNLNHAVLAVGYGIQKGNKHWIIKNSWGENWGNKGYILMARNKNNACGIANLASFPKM
# Cathepsin S [2] = target: Cathepsin S (Homo sapiens, UniProt P25774); details: at 1 × 10^−6 M; cited from earlier work
# Cathepsin C = Cathepsin C (Homo sapiens, UniProt P53634); details: at 1 × 10^−6 M; cited from earlier work
# cathepsin L [3] = target: T2, cathepsin L (Mus musculus, UniProt P06797); experiment: Cysteine protease active site labeling in mouse peritoneal macrophages: cathepsin L; type: cell-based
# T2 construct: endogenous in cells; host or cells: thioglycolate-elicited mouse peritoneal macrophages
# Procedure: (§1) FIG. 1. Cysteine protease inhibition profile by synthetic inhibitors in mouse peritoneal macrophages. [^125I]-Z-Tyr-Ala-CHN2-labeled mouse peritoneal macrophages were lysed and separated onto 12% SDS-PAGE to visualize labeled active cathepsins. Doses and inhibitors used were all indicated.
# (§2) Mouse peritoneal macrophages were generated by injecting mice with thioglycolate as described in Shi et al. (2000) J. Exp. Med. 191:[…]. After 3-4 days of incubation, peritoneal microphages were washed out using Tris-EDTA buffers containing 6 mM EDTA (pH 8.0). Cells were then seeded onto 24-well plates in DMEM with 10% FBS till complete spread. After cells were attached to the plates, different doses of inhibitors were added. After 2-3 hours of incubation, cells were labeled with [^125I]-Z-Tyr-Ala-CHN2 overnight at 37° C. to detect intracellular active cysteine proteases. Cells were lysed into 1× reducing protein sample buffer and separated onto 12% SDS-PAGE.
# First, the synthetic small molecule compounds were tested for their selectivity toward different forms of cathepsin. Mouse peritoneal macrophages were cultured in the presence of selective inhibitors and cysteine protease active site labeling probe [^125I]-Z-Tyr-Ala-CHN2 (Sukhova et al., supra). […] In contrast, other inhibitors used had no effect on cathepsin B activity. […] Therefore, these inhibitors can be utilized to test if the aforementioned cathepsins play roles in the breakdown of insulin receptor (IR) or IR turnover.
# [4] = test system: insulin receptor β subunit; experiment: Insulin receptor turnover in human preadipocytes, Western blot; type: cell-based
# Procedure: FIG. 2. […] Human preadipocytes were incubated with and without inhibitors indicated at different doses, lysed, separated onto 7% SDS-PAGE, and probed with goat anti-human insulin receptor β-subunit polyclonal antibodies. Both mature β subunit and its precursor were indicated.
# (§3) Human preadipocytes were initially cultured in MSCGM medium (BioWhitaker) at 37° C. and 5% CO2 for 7 to 12 days with 3-4 changes of media till complete confluence. Non-induced cells were kept in adipogenesis maintenance media containing 0.01 mg/ml of insulin, 0.05 units/ml of penicillin, 0.05 μg/ml of streptomycin, and 10% fetal bovine serum. To induce adipogenesis, complete confluent cells were cultured in adipogenesis induction medium containing 1 μM dexamethasone, 0.2 mM indomethacin, 0.01 mg/ml insulin, 0.5 mM 3-isobutyl-1-methyl-xanthine, 0.05 units/ml of penicillin, 0.05 μg/ml of streptomycin, and 10% fetal bovine serum in the presence and absence of protease inhibitors for 3 days followed by three days of culture in maintenance media. After three cycles of induction and maintenance, cells were cultured in maintenance media for additional 7 days with two changes of fresh media.
# After differentiation, cells were collected, and lysed into 1×RIPA buffer. Protein concentrations were determined using Bio-Rad Dc protein assay system according to the manufacturer (Bio-Rad, Hercules, Calif.). Equal amount of proteins were separated on 7% SDS-PAGE for detecting IR and IGF-1R, 12% SDS-PAGE for detecting cathepsins S, K, and L antigens. Both IR and IGF-1R primary polyclonal antibodies were raised from goat and all cathepsin antibodies were polyclonal antibodies raised from rabbit. The corresponding HRP-conjugated secondary antibodies were used for detections.
# To test which cathepsin is involved in the IR turnover, human preadipocytes (BioWhittaker, Walkersville, Md.) were induced to become adipocytes in the presence and absence of inhibitors. Differentiated adipocytes expressed more IR than controls as previously reported. Pederson et al. (2000) Biochem. Biophys. Res. Commun. 276:162-168. Cathepsin B inhibitor (CA 074, 10 μM) and catepsin S inhibitor (CLIK 060, 2 μM) had no effect on either IR turnover or differentiation (FIGS. 2). […] The same is true when the blot was tested with insulin like growth factor I receptor (IGF-IR) antibodies (FIG. 3).
# human preadipocytes = experiment: Human preadipocyte adipogenesis, oil-red staining; type: cell-based; details: for effect on adipogenesis: human preadipocytes
# Procedure: FIG. 6. Oil-red staining of human preadipocytes and adipocytes.
# as §3
# This hypothesis is further confirmed by oil-red staining of CLIK 148 or 195 treated preadipocytes (FIG. 6). In addition, inhibition of adiogenesis by these two inhibitors is dose dependent. Less than 50% of adipogenesis was blocked by 1 μM of such inhibitors. […] In contrast, 1 μM of CLIK 060, 1 or 10 μM of CA 074 had no effect on adipogenesis (data not shown). Therefore, these observations indicate that cathepsin L appears to play a more critical role than cathepsins S and K in adipogenesis by controlling insulin/IR complex turnover.
# cathepsin S [5] = target: cathepsin S (Mus musculus, UniProt O70370); experiment: Cysteine protease active site labeling in mouse peritoneal macrophages: cathepsin S; type: cell-based; set-up: endogenous in cells; host or cells: thioglycolate-elicited mouse peritoneal macrophages; details: 2-10 μM
# Procedure: as §1, §2
# First, the synthetic small molecule compounds were tested for their selectivity toward different forms of cathepsin. Mouse peritoneal macrophages were cultured in the presence of selective inhibitors and cysteine protease active site labeling probe [^125I]-Z-Tyr-Ala-CHN2 (Sukhova et al., supra). […] In contrast, other inhibitors used had no effect on cathepsin B activity. […]
# Chain of Cathepsin L (P07711 114-333, species assumed): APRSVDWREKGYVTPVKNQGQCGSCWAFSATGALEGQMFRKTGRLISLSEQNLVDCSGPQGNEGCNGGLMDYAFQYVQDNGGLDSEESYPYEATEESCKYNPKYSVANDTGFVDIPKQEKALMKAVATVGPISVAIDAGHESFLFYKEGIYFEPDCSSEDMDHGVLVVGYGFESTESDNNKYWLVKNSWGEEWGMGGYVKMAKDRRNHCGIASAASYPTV
# T2 sequence (P06797 114-334): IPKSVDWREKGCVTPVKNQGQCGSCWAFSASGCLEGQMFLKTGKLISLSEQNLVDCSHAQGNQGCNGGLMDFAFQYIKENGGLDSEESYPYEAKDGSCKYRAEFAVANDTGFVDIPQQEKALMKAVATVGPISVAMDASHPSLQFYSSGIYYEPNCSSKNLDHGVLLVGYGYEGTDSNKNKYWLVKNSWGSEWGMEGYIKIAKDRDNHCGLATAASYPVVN
# Chain of Cathepsin C (P53634 25-463, species assumed): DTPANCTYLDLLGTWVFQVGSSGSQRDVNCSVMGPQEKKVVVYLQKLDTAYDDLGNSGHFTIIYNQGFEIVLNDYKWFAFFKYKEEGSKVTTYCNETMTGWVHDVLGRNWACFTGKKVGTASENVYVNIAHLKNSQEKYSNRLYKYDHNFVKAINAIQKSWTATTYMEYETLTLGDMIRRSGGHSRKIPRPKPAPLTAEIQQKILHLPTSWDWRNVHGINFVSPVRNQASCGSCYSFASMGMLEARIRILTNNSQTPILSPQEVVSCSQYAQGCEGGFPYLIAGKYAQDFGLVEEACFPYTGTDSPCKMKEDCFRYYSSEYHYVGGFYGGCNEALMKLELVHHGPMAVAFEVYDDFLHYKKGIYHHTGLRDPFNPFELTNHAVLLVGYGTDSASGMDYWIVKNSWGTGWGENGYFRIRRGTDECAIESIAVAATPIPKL
# Chain of Cathepsin S (P25774 115-331, species assumed): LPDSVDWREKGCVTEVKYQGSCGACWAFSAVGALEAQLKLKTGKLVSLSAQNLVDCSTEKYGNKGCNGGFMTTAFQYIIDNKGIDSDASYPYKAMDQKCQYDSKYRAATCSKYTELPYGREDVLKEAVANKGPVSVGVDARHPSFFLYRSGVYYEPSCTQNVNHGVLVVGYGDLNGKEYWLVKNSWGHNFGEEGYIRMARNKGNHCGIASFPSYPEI
smiles,measurement,setting,value
N#CN1CC(NC(=O)CC2CCCCC2)C1,IC50,Cathepsin B,0.15 µM
same,IC50,Cathepsin L [1],0.006 µM
same,IC50,Cathepsin K,0.005 µM
CC(C)C[C@H](NC(=O)[C@H](CC(C)C)NC(=O)OCc1ccccc1)C(=O)COCc1ccc(-c2ccccc2)cc1,Ki,Cathepsin B,1.31 µM
same,Ki,Cathepsin L [1],0.063 µM
same,Ki,Cathepsin K,0.022 µM
CN(C)C(=O)[C@H](Cc1ccccc1)NC(=O)C1O[C@@H]1C(=O)N[C@@H](Cc1ccccc1)C(=O)N(C)C (stereo partly shown),"% of Inhibition, Cathepsin S",Cathepsin S [2],25%
same,"% of Inhibition, Cathepsin B",Cathepsin B; at 1 × 10^−6 M,0%
same,"% of Inhibition, Cathepsin L",Cathepsin L [1]; at 1 × 10^−6 M,100%
same,"% of Inhibition, Cathepsin K",Cathepsin K; at 1 × 10^−6 M,0%
same,"% of Inhibition, Cathepsin C",Cathepsin C,0%
"CN(C)C(=O)[C@H](Cc1ccccc1)NC(=O)C1OC1C(=O)NC(CCCCN)C(=O)Nc1ccccc1.Cl (stereo in doubt) [CLIK 060, N-{L-3-trans[(1-phenylcarbamoyl-5-amino)pentylcarbamoyl]oxirane-2-carbonyl}-L-phenylalaninoldimethylamide hydrochloride]",cathepsin L activity (active site labeling),"cathepsin L [3]; 2-10 μM, mouse peritoneal macrophages",affected at some level
same,cathepsin L activity (active site labeling),"cathepsin L [3]; 10-15 μM, FIG. 1",blocked
same,IR turnover,"[4]; 2 μM, human preadipocytes induced to adipocytes",no effect
same,IR accumulation,"[4]; 10-15 μM, human preadipocytes",IR accumulation
same,effect on adipogenesis,human preadipocytes; 1 μM,no effect
same,differentiation of human preadipocytes,human preadipocytes; 2 μM,no effect
same,effect on adipogenesis,human preadipocytes; 10-15 μM (higher concentrations),adipogenesis inhibition
same,cathepsin S activity (active site labeling),cathepsin S [5],significantly inhibited
O=C(N[C@@H](Cc1ccc2ccccc2c1)C(=O)N[C@H]1CCCN(S(=O)(=O)c2ccccn2)CC1=O)c1cccc2cccnc12,Ki,Cathepsin K,0.42 to 0.503 µM
N#CN1CCC(NC(=O)Cc2ccccc2)C1 (stereo not shown),IC50,Cathepsin B,0.2 µM
same,IC50,Cathepsin L [1],0.054 µM
same,IC50,Cathepsin K,0.04 µM
O=C[C@H](Cc1c[nH]c2ccccc12)NC(=O)C(Cc1ccccc1)Cc1ccccc1,IC50,Cathepsin B,> 1 µM
same,IC50,Cathepsin L [1],< 0.032 µM
